Columns and labels:
GM 07492 = assay: MTS cytotoxicity assay, normal fibroblasts GM 07492; type: cell-based; details: 72 h incubation, normal human fibroblasts, mean ± SD
Procedure: (§1) The human colon adenocarcinoma cell line HCT116 along with wild type p53 (p53^+/+) were obtained from the ATCC. The normal human fibroblast cell line GM 07492 and HCT116 with a p53 deletion (p53^-/-) were kindly provided by prof. M. Rusin from Maria Sklodowska-Curie Memorial Cancer Center and Institute of Oncology in Gliwice, Poland. Cells were grown as monolayer cultures in 75 cm^2 flasks (Nunc) in Dulbecco’s modified Eagle’s medium with an antibiotic gentamicin (200 μL/100 mL medium). DMEM for HCT116 were supplemented with 12% heat-inactivated fetal bovine serum (Gibco) and for GM 07492 with 15% fetal bovine serum (Gibco). Cells were cultured under standard conditions at 37°C in a humidified atmosphere at 5% CO2.
(§2) The cells were seeded in 96-well plates 24 h before the addition of the compounds that were tested. The assay was performed following a 72 h incubation with varying concentrations of the agents that were tested. The results were calculated as IC50 values (using GraphPad Prism 5). Each individual compound was tested in triplicate in a single experiment with each experiment being repeated three times. After a 72 h incubation with the compounds that were tested, 20 μL of The CellTiter 96®AQueous One Solution—MTS (Promega) solution was added to each well (with 100 μL DMEM without phenol red) and incubated for 1 h at 37°C. The optical densities of the samples were analyzed at 490 nm. Results were expressed as a percentage of the control.

HCT116 (p53-/-) = assay: MTS anti-proliferative assay, HCT116 (p53-/-); type: cell-based, human; details: for IC50: MTS, 72 h incubation, mean ± SD
Procedure: as §1, §2

HCT116 (p53+/+) = assay: MTS anti-proliferative assay, HCT116 (p53+/+); type: cell-based, human; details: mean ± SD
Procedure: as §1, §2

HCT116 -/- = assay: Trypan blue staining test, HCT116 -/-; type: cell-based, human; details: S2 Table, trypan blue cell counting, 72 h
Procedure: (§3) The cells were seeded in 3 cm Petri dishes (Nunc) and incubated at 37°C. After 24h, solutions […]
(§4) a 72 h incubation with tested compounds, the cells were trypsinize d with 0.05% Trypsin -EDTA solution (Sigma). Then, 90µl of suspension cells transferred into 96 -well plate containing 10µl Trypan blue reagent in wells. The cells were counted under an optical inverted microscope Olympus CKX31. The results from three independent experiment were calculated as IC 50 values using GraphPad Prism 5 software.

HCT116 +/+ = assay: Trypan blue staining test, HCT116 +/+; type: cell-based, human; details: S2 Table, trypan blue cell counting, 72 h
Procedure: as §3, §4

Calf-thymus DNA (CT-DNA) = assay: Spectrophotometric DNA binding (intercalation) study with CT-DNA
Procedure: For the DNA binding studies, Calf-thymus DNA (CT-DNA) was purchased from Sigma Aldrich. The lyophilized CT-DNA was dissolved in 10 mM Tris-HCl, pH 7.9, mixed gently and left overnight at 4°C. Then, the concentration of CT-DNA was determined from the absorbance at 260 nm using an extinction coefficient of 6600 M^-1cm^-1. […] Afterwards, 18 μM CT-DNA was added to the prepared solutions and were incubated for 1.5 h at 37°C with occasional vortexing. Absorption spectra were measured using a Hitachi U-2900 spectrophotometer in range of 200–600 nm. All absorption spectra were imported and compared in OriginPro 8.0.

[1] = Homo sapiens, HCT-116, 72 h incubation

Structure (SMILES) | IC50 (HCT116 (p53-/-)) | IC50 (HCT116 (p53+/+); 72 h incubation) | melting point | IC50 (HCT116 (p53-/-); Homo sapiens, HCT-116) | IC50 (HCT116 (p53+/+); [1]) | further results
CCOc1ccccc1C=Cc1ccc2c(Cl)cc(Cl)c(O)c2n1 [1c, 5,7-Dichloro-2 – [2-(2-ethoxyphenyl)vinyl]quinolin-8-ol] |  |  | 100 to 102 °C | 3.25 ± 1.81 µM | 5.93 ± 0.97 µM | IC50 (GM 07492; Fibroblast): > 25 µM
CCOc1ccc(C=Cc2ccc3ccccc3n2)cc1 [2a] |  |  |  | > 25 µM | > 25 µM | 
Oc1c(Cl)cc(Cl)c2ccc(C=Cc3ccccc3Cl)nc12 [2c, 5,7-Dichloro-2 – [2-(2-chlorophenyl)vinyl]quinolin-8-ol] |  |  | 205 to 210 °C |  |  | 
CCCCOc1ccc(C=Cc2ccc3ccccc3n2)cc1 [3a] | > 25 µM | > 25 µM |  |  |  | IC50 (HCT116 -/-): > 25 µM; IC50 (HCT116 +/+): > 25 µM
CCOc1ccc(C=Cc2ccc3c(Cl)cc(Cl)c(O)c3n2)cc1 [3c, 5,7-Dichloro-2 – [2-(4-ethoxyphenyl)vinyl]quinolin-8-ol] |  |  | 156 to 158 °C | 3.53 ± 0.83 µM | 2.23 µM | IC50 (GM 07492; Fibroblast): > 25 µM; % hypochromism (Calf-thymus DNA (CT-DNA); 18 μM CT-DNA, 1.5 h 37°C, Tris-HCl pH 7.9, at the (first) absorption band (CP-31398: 312)): 11,6%; Δε (Calf-thymus DNA (CT-DNA); 18 μM CT-DNA, at the (first) absorption band (CP-31398: 312)): 557,8 M−1 cm−1; shift of the wavelength of maximum absorption, alone vs DNA-bound (Calf-thymus DNA (CT-DNA); S3 Table, 18 μM CT-DNA): 8; Changes in absorbance (Calf-thymus DNA (CT-DNA); S3 Table, with CT-DNA): hypochromism
CC(=O)Oc1cc(OC(C)=O)c(C=Cc2ccc3cccc(OC(C)=O)c3n2)c(OC(C)=O)c1 [10b] |  |  | 189 °C | > 25 µM | > 25 µM | 

Continued, in another order:

IC50 (HCT116 (p53-/-)) | IC50 (HCT116 (p53+/+); 72 h incubation) | melting point | IC50 (HCT116 (p53-/-); Homo sapiens, HCT-116) | IC50 (HCT116 (p53+/+); [1]) | Structure (SMILES) | further results
14.1 ± 2.24 µM | 17.4 ± 2.2 µM |  |  |  | Oc1ccccc1C=Cc1ccc2ccccc2n1 [1a] | IC50 (GM 07492): > 25 µM
14.7 ± 1.74 µM | 8.08 ± 0.56 µM |  |  |  | CC(=O)Oc1ccccc1C=Cc1ccc2cccc(OC(C)=O)c2n1 [2b] | IC50 (GM 07492): 6.92 ± 1.72 µM
13.5 ± 0.81 µM | 7.32 ± 1.01 µM |  |  |  | CC(=O)Oc1ccccc1C=Cc1ccc2cccc(O)c2n1 [3b] | IC50 (GM 07492): > 25 µM
10.7 ± 3.76 µM | 7.88 ± 1.98 µM |  |  |  | CC(=O)Oc1cccc(C=Cc2ccc3cccc(O)c3n2)c1 [4b] | IC50 (GM 07492): > 25 µM
 |  | 172 °C | > 25 µM | > 25 µM | COc1cc(C=Cc2ccc3cccc(O)c3n2)cc(OC(C)=O)c1OC(C)=O [7b] | 
> 25 µM | > 25 µM |  |  |  | CC(=O)Oc1ccc(C=Cc2ccc3cccc(OC(C)=O)c3n2)c(OC(C)=O)c1 [8b] | 
> 25 µM | > 25 µM |  |  |  | Oc1cc(O)c(C=Cc2ccc3cccc(O)c3n2)c(O)c1 [9b] | 
 |  | 239 °C | 8.38 ± 1.12 µM | 15.4 ± 2.46 µM | Oc1cccc2ccc(C=Cc3ccccc3F)nc12 [11b] | IC50 (GM 07492; Fibroblast): > 25 µM; times more effective against HCT116 (p53-/-) than against wild type cells (HCT116 (p53-/-); ratio of MTS IC50 values): 2–3 times

From paper PMC4657899, “Design, Synthesis and In Vitro Activity of Anticancer Styrylquinolines. The p53 Independent Mechanism of Action” (PLoS ONE, 2015)
